Laboratory results published in article PMC6370856, “Peptidyl prolyl cis/trans isomerase activity on the cell surface correlates with extracellular matrix development” (Communications Biology, 2019).

What was measured:
[1] = test system: fibrin hydrogel; test: Stiffness (storage modulus) of fibrin gel by rheometer; conditions: for Storage Modulus Mean: fibrin gel
Procedure: (§1) To minimize sample evaporation at 37 °C, a tissue paper wet in HEPEs buffer (10 mM, pH 7.8) was placed inside the H-PTD chamber to increase the humidity. […] The cone and plate were treated with plasma for 5 min to increase the hydrophilicity of the metal surface.
Fibrin gel: Fibrinogen (Shanghai Laishi Xuezhipin Limited Company) was dissolved in PBS with a concentration of 22.2 mg mL^−1 overnight at room temperature with gentle shaking and aliquoted in protein low-binding tubes (45 µL per tube). […] Fifty microliters of thrombin (4 EU mL^−1 in PBS with 1.8 mM CaCl2) was added and pipetted up and down ten times. Then, it was transferred to the rheometer plate for measurement. […] For each condition, two independent experiments were performed (Fig. 1a and Supplementary Fig. 1).

[2] = test system: collagen hydrogel (Type I, rat-tail); test: Step-strain rheological measurement, self-healing of collagen hydrogel
Procedure: Another important feature of the dynamic ECMs is their self-healing property, which can be tested using a step-strain rheological measurement. A strong strain is applied to liquify the materials, and the recovery of storage modulus is followed (self-healing) (Fig. 1b). Collagen hydrogel can only partially recover its storage modulus after the first cycle. The rate and extent of recovery were unchanged over the following cycles.
as §1

With “CypA: recombinant cyclophilin A, a PPIase, expressed in E. coli” the “effect on storage modulus of fibrin hydrogel” value ([1]; 1 µM CypA) was “remarkably enhanced”, the “Storage Modulus Mean” value ([1]; 1 micromolar CypA, 3 min) was 56.652 Pa and the “Storage Modulus Mean” value ([1]; 1 micromolar CypA, 3.5 min) was 58.3965 Pa. The “Storage Modulus Mean” value ([1]; 1 micromolar CypA, 4 min) was 59.006 Pa, the “Storage Modulus Mean” value ([1]; 1 micromolar CypA, 4.5 min) was 60.5775 Pa and the “Storage Modulus Mean” value ([1]; 1 micromolar CypA, 5 min) was 62.605 Pa. The “Storage Modulus Mean” value ([1]; 1 micromolar CypA, 6 min) was 64.745 Pa, the “Storage Modulus Mean” value ([1]; 1 micromolar CypA, 6.5 min) was 65.763 Pa and the “Storage Modulus Mean” value ([1]; 1 micromolar CypA, 7 min) was 66.7405 Pa. For the same substance, the “Storage Modulus Mean” value ([1]; 1 micromolar CypA, 7.5 min) was 67.652 Pa, the “Storage Modulus Mean” value ([1]; 1 micromolar CypA, 8 min) was 68.8195 Pa and the “Storage Modulus Mean” value ([1]; 1 micromolar CypA, 8.5 min) was 69.705 Pa. For the same substance, the “Storage Modulus Mean” value ([1]; 1 micromolar CypA, 9 min) was 70.143 Pa, the “Storage Modulus Mean” value ([1]; 1 micromolar CypA, 9.5 min) was 71.2125 Pa and the “Storage Modulus Mean” value ([1]; 1 micromolar CypA, 10 min) was 72.402 Pa. The “Storage Modulus Mean” value ([1]; 1 micromolar CypA, 11 min) was 74.113 Pa, the “Storage Modulus Mean” value ([1]; 1 micromolar CypA, 12 min) was 75.428 Pa and the “Storage Modulus Mean” value ([1]; 1 micromolar CypA, 12.5 min) was 75.9135 Pa. For the same substance, the “Storage Modulus Mean” value ([1]; 1 micromolar CypA, 13 min) was 76.613 Pa, the “Storage Modulus Mean” value ([1]; 1 micromolar CypA, 14 min) was 77.9915 Pa and the “Storage Modulus Mean” value ([1]; 1 micromolar CypA, 15 min) was 78.877 Pa. The “Storage Modulus Mean” value ([1]; 3 micromolar CypA, 3 min) was 56.9022 Pa, the “Storage Modulus Mean” value ([1]; 3 micromolar CypA, 3.5 min) was 58.8285 Pa and the “Storage Modulus Mean” value ([1]; 3 micromolar CypA, 4 min) was 60.4529 Pa. The “Storage Modulus Mean” value ([1]; 3 micromolar CypA, 5 min) was 63.4816 Pa, the “Storage Modulus Mean” value ([1]; 3 micromolar CypA, 6 min) was 65.1141 Pa and the “Storage Modulus Mean” value ([1]; 3 micromolar CypA, 6.5 min) was 66.9921 Pa. The “Storage Modulus Mean” value ([1]; 3 micromolar CypA, 7 min) was 68.0463 Pa, the “Storage Modulus Mean” value ([1]; 3 micromolar CypA, 7.5 min) was 69.6441 Pa and the “Storage Modulus Mean” value ([1]; 3 micromolar CypA, 8 min) was 70.5045 Pa. For the same substance, the “Storage Modulus Mean” value ([1]; 3 micromolar CypA, 8.5 min) was 71.5921 Pa, the “Storage Modulus Mean” value ([1]; 3 micromolar CypA, 9 min) was 72.9987 Pa and the “Storage Modulus Mean” value ([1]; 3 micromolar CypA, 9.5 min) was 73.9279 Pa. The “Storage Modulus Mean” value ([1]; 3 micromolar CypA, 10 min) was 75.4268 Pa, the “Storage Modulus Mean” value ([1]; 3 micromolar CypA, 11 min) was 76.965 Pa and the “Storage Modulus Mean” value ([1]; 3 micromolar CypA, 12 min) was 78.6581 Pa. For the same substance, the “Storage Modulus Mean” value ([1]; 3 micromolar CypA, 12.5 min) was 79.6539 Pa, the “Storage Modulus Mean” value ([1]; 3 micromolar CypA, 13 min) was 80.8472 Pa and the “Storage Modulus Mean” value ([1]; 3 micromolar CypA, 14 min) was 81.859 Pa. The “Storage Modulus Mean” value ([1]; 3 micromolar CypA, 15 min) was 84.0373 Pa, the “Storage Modulus Mean” value ([1]; 9 micromolar CypA, 3 min) was 62.185 Pa and the “Storage Modulus Mean” value ([1]; 9 micromolar CypA, 3.5 min) was 63.846 Pa. The “Storage Modulus Mean” value ([1]; 9 micromolar CypA, 4 min) was 65.982 Pa, the “Storage Modulus Mean” value ([1]; 9 micromolar CypA, 4.5 min) was 68.114 Pa and the “Storage Modulus Mean” value ([1]; 9 micromolar CypA, 5 min) was 69.837 Pa. The “Storage Modulus Mean” value ([1]; 9 micromolar CypA, 6 min) was 72.811 Pa, the “Storage Modulus Mean” value ([1]; 9 micromolar CypA, 6.5 min) was 74.461 Pa and the “Storage Modulus Mean” value ([1]; 9 micromolar CypA, 7 min) was 75.619 Pa. The “Storage Modulus Mean” value ([1]; 9 micromolar CypA, 7.5 min) was 77.1405 Pa, the “Storage Modulus Mean” value ([1]; 9 micromolar CypA, 8 min) was 78.5045 Pa and the “Storage Modulus Mean” value ([1]; 9 micromolar CypA, 8.5 min) was 79.81 Pa. The “Storage Modulus Mean” value ([1]; 9 micromolar CypA, 9 min) was 80.8145 Pa, the “Storage Modulus Mean” value ([1]; 9 micromolar CypA, 9.5 min) was 82.609 Pa and the “Storage Modulus Mean” value ([1]; 9 micromolar CypA, 10 min) was 83.584 Pa. For the same substance, the “Storage Modulus Mean” value ([1]; 9 micromolar CypA, 11 min) was 86.0735 Pa, the “Storage Modulus Mean” value ([1]; 9 micromolar CypA, 12 min) was 88.4775 Pa and the “Storage Modulus Mean” value ([1]; 9 micromolar CypA, 12.5 min) was 89.3905 Pa. The “Storage Modulus Mean” value ([1]; 9 micromolar CypA, 13 min) was 90.5025 Pa, the “Storage Modulus Mean” value ([1]; 9 micromolar CypA, 14 min) was 91.758 Pa and the “Storage Modulus Mean” value ([1]; 9 micromolar CypA, 15 min) was 94.897 Pa. For the same substance, the “Storage Modulus Mean” value ([1]; 9 micromolar CypA, 15.5 min) was 96.242 Pa, the “Storage Modulus Mean” value ([1]; 20 micromolar CypA, 3 min) was 48.845 Pa and the “Storage Modulus Mean” value ([1]; 20 micromolar CypA, 3.5 min) was 49.5435 Pa. The “Storage Modulus Mean” value ([1]; 20 micromolar CypA, 4 min) was 50.3955 Pa, the “Storage Modulus Mean” value ([1]; 20 micromolar CypA, 4.5 min) was 50.963 Pa and the “Storage Modulus Mean” value ([1]; 20 micromolar CypA, 5 min) was 51.714 Pa. For the same substance, the “Storage Modulus Mean” value ([1]; 20 micromolar CypA, 6 min) was 52.522 Pa, the “Storage Modulus Mean” value ([1]; 20 micromolar CypA, 6.5 min) was 53.309 Pa and the “Storage Modulus Mean” value ([1]; 20 micromolar CypA, 7 min) was 53.9025 Pa. The “Storage Modulus Mean” value ([1]; 20 micromolar CypA, 7.5 min) was 54.3695 Pa, the “Storage Modulus Mean” value ([1]; 20 micromolar CypA, 8 min) was 54.713 Pa and the “Storage Modulus Mean” value ([1]; 20 micromolar CypA, 8.5 min) was 55.308 Pa. The “Storage Modulus Mean” value ([1]; 20 micromolar CypA, 9 min) was 55.0885 Pa, the “Storage Modulus Mean” value ([1]; 20 micromolar CypA, 9.5 min) was 56.131 Pa and the “Storage Modulus Mean” value ([1]; 20 micromolar CypA, 10 min) was 56.586 Pa. The “Storage Modulus Mean” value ([1]; 20 micromolar CypA, 11 min) was 57.3845 Pa, the “Storage Modulus Mean” value ([1]; 20 micromolar CypA, 12 min) was 58.3285 Pa and the “Storage Modulus Mean” value ([1]; 20 micromolar CypA, 12.5 min) was 58.642 Pa. The “Storage Modulus Mean” value ([1]; 20 micromolar CypA, 14 min) was 59.019 Pa, the “Storage Modulus Mean” value ([1]; 20 micromolar CypA, 15 min) was 59.9075 Pa and the “Storage Modulus Mean” value ([1]; 20 micromolar CypA, 15.5 min) was 60.0285 Pa. The “stiffness and extent of recovery in the self-healing process of collagen hydrogel” value [2] was “remarkably enhanced”.
